Measured values as given in ChEMBL document CHEMBL1154412, “In vitro activity of telavancin against gram-positive clinical isolates recently obtained in Europe” (Antimicrob Agents Chemother, 2007).
Values after ≈ are worked out from the molar mass of the structure shown.

Tests used:
Staphylococcus aureus [1] = test: Antimicrobial activity against methicillin-susceptible Staphylococcus aureus after 20 to 24 hrs by broth microdilution method; type: functional
[2] = Protein binding in human plasma; type: ADME, cell-free; conditions: read-out: PB (converted)
Staphylococcus [3] = test: Antimicrobial activity against methicillin-resistant coagulase-negative Staphylococcus after 20 to 24 hrs by broth microdilution method; type: functional
Streptococcus viridans = test: Antimicrobial activity against Streptococcus viridans after 20 to 24 hrs by broth microdilution method; type: functional
Staphylococcus aureus [4] = test: Antimicrobial activity against methicillin-resistant Staphylococcus aureus after 20 to 24 hrs by broth microdilution method; type: functional
Streptococcus pneumoniae [5] = test: Antibacterial activity against penicillin-resistant Streptococcus pneumoniae after 20 to 24 hrs by broth microdilution method; type: functional
Enterococcus faecium [6] = test: Antibacterial activity against vancomycin-resistant Enterococcus faecium after 20 to 24 hrs by broth microdilution method; type: functional
Enterococcus faecium [7] = test: Antibacterial activity against vancomycin-susceptible Enterococcus faecium after 20 to 24 hrs by broth microdilution method; type: functional
Homo sapiens = test: Plasma concentration in human at 7.5 mg/kg; type: ADME, organism-based; design: dose 7.5 mg/kg; conditions: in vivo
Streptococcus pneumoniae [8] = test: Antibacterial activity against penicillin-susceptible Streptococcus pneumoniae after 20 to 24 hrs by broth microdilution method; type: functional
Enterococcus faecalis [9] = test: Antimicrobial activity against vancomycin-resistant Enterococcus faecalis after 20 to 24 hrs by broth microdilution method; type: functional
Streptococcus pneumoniae [10] = test: Antibacterial activity against penicillin-intermediate Streptococcus pneumoniae after 20 to 24 hrs by broth microdilution method; type: functional
Staphylococcus [11] = test: Antimicrobial activity against methicillin-susceptible coagulase-negative Staphylococcus after 20 to 24 hrs by broth microdilution method; type: functional
[12] = test system: Streptococcus sp. 'group B'; test: Antimicrobial activity against Streptococcus group B after 20 to 24 hrs by broth microdilution method; type: functional
Enterococcus faecalis [13] = test: Antimicrobial activity against vancomycin-susceptible Enterococcus faecalis after 20 to 24 hrs by broth microdilution method; type: functional
[14] = test system: Streptococcus sp. 'group A'; test: Antimicrobial activity against Streptococcus group A after 20 to 24 hrs by broth microdilution method; type: functional

Q: Which MIC50 (Staphylococcus aureus [1]) does the source give for `CCCCCCCCCCNCCN[C@@]1(C)C[C@H](O[C@H]2[C@H](Oc3c4cc5cc3Oc3ccc(cc3Cl)[C@@H](O)[C@@H](NC(=O)[C@@H](CC(C)C)NC)C(=O)N[C@@H](CC(N)=O)C(=O)N[C@H]5C(=O)N[C@H]3C(=O)N[C@H](C(=O)N[C@H](C(=O)O)c5cc(O)c(CNCP(=O)(O)O)c(O)c5-c5cc3ccc5O)[C@H](O)c3ccc(c(Cl)c3)O4)O[C@H](CO)[C@@H](O)[C@@H]2O)O[C@@H](C)[C@H]1O` [TELAVANCIN] here?
A: 0.25 µg/mL (≈ 0.142 µM)

Q: What about the MIC90 (Staphylococcus aureus [1]) of the same compound?
A: 0.25 µg/mL (≈ 0.142 µM)

Q: What about the fraction unbound [2] of the same compound?
A: 0.1

Q: What about the MIC50 (Staphylococcus [3]) of the same compound?
A: 0.25 µg/mL (≈ 0.142 µM)

Q: What about the MIC90 (Staphylococcus [3]) of the same compound?
A: 0.25 µg/mL (≈ 0.142 µM)

Q: What about the MIC50 (Streptococcus viridans) of the same compound?
A: 0.06 µg/mL (≈ 0.0342 µM)

Q: What about the MIC90 (Streptococcus viridans) of the same compound?
A: 0.06 µg/mL (≈ 0.0342 µM)

Q: And the MIC50 (Staphylococcus aureus [4])?
A: 0.25 µg/mL (≈ 0.142 µM)

Q: What about the MIC90 (Staphylococcus aureus [4]) of the same compound?
A: 0.25 µg/mL (≈ 0.142 µM)

Q: What about the MIC (Streptococcus pneumoniae [5]) of the same compound?
A: 0.015 µg/mL (≈ 0.00854 µM)

Q: What about the MIC50 (Streptococcus pneumoniae [5]) of the same compound?
A: 0.015 µg/mL (≈ 0.00854 µM)

Q: What about the MIC90 (Streptococcus pneumoniae [5]) of the same compound?
A: 0.03 µg/mL (≈ 0.0171 µM)

Q: What about the MIC50 (Enterococcus faecium [6]) of the same compound?
A: 1 µg/mL (≈ 0.57 µM)

Q: What about the MIC90 (Enterococcus faecium [6]) of the same compound?
A: 2 µg/mL (≈ 1.14 µM)

Q: What about the MIC50 (Enterococcus faecium [7]) of the same compound?
A: 0.12 µg/mL (≈ 0.0684 µM)

Q: What about the MIC90 (Enterococcus faecium [7]) of the same compound?
A: 0.25 µg/mL (≈ 0.142 µM)

Q: And the Cp (Homo sapiens)?
A: 96.7 µg/mL

Q: What about the MIC50 (Streptococcus pneumoniae [8]) of the same compound?
A: 0.015 µg/mL (≈ 0.00854 µM)

Q: What about the MIC90 (Streptococcus pneumoniae [8]) of the same compound?
A: 0.03 µg/mL (≈ 0.0171 µM)

Q: And the MIC50 (Enterococcus faecalis [9])?
A: 4 µg/mL (≈ 2.28 µM)

Q: What about the MIC90 (Enterococcus faecalis [9]) of the same compound?
A: 8 µg/mL (≈ 4.56 µM)

Q: What about the MIC50 (Streptococcus pneumoniae [10]) of the same compound?
A: 0.015 µg/mL (≈ 0.00854 µM)

Q: And the MIC90 (Streptococcus pneumoniae [10])?
A: 0.03 µg/mL (≈ 0.0171 µM)

Q: What about the MIC50 (Staphylococcus [11]) of the same compound?
A: 0.25 µg/mL (≈ 0.142 µM)

Q: What about the MIC90 (Staphylococcus [11]) of the same compound?
A: 0.25 µg/mL (≈ 0.142 µM)

Q: What about the MIC50 [12] of the same compound?
A: 0.06 µg/mL (≈ 0.0342 µM)

Q: What about the MIC90 [12] of the same compound?
A: 0.06 µg/mL (≈ 0.0342 µM)

Q: And the MIC50 (Enterococcus faecalis [13])?
A: 0.25 µg/mL (≈ 0.142 µM)

Q: What about the MIC90 (Enterococcus faecalis [13]) of the same compound?
A: 0.5 µg/mL (≈ 0.285 µM)

Q: What about the MIC [14] of the same compound?
A: 0.03 µg/mL (≈ 0.0171 µM)

Q: And the MIC50 [14]?
A: 0.03 µg/mL (≈ 0.0171 µM)

Q: What about the MIC90 [14] of the same compound?
A: 0.06 µg/mL (≈ 0.0342 µM)
